# Reference: US7504420B2, “Compounds which inhibit beta-secretase activity and methods of use” (CoMentis, Inc., priority 2005, dated 2009)
# Where two headings read alike, the source gives them in different places.
# What was measured:
# cathepsin D = cathepsin D (Homo sapiens, UniProt P07339); experiment: Inhibition of cathepsin D catalytic activity (Ki); type: biochemical; details: pH 4.0, 37° C., read-out: CDK
# Procedure: A substrate peptide NH3-ELDLAVEFWHDR-CO2 (SEQ ID NO.:1) (used for inhibition assay of memapsin 2, memapsin 1, and cathepsin D) was dissolved at 2 mg/ml in DMSO and diluted 1:100 in 0.1 M sodium acetate, pH 4.0 just prior to assay. Inhibitor dissolved in DMSO was diluted into 0.1 M sodium acetate, pH 4.0 (1:100 dilution). A […] aliquot of the inhibitor solution in pH 4 buffer was combined with […] of 0.1 M sodium acetate containing 100-200 nM of memapsin 1, memapsin 2, or cathepsin D. Following a pre-incubation at 37° C., the proteolytic assay was initated by addition of […] of the substrate diluted into pH 4 buffer, and incubation continued at 37° C. Aliquots were removed at time intervals, and combined with an equal volume of MALDI-TOF matrix (α-hydroxycinnamic acid in acetone, 20 mg/ml) and immediately spotted in duplicate onto a stainless-steel MALDI sample plate. MALDI-TOF mass spectrometry was performed on a PE Biosystems Voyager DE instrument at the Molecular Biology Resource Center on campus. The instrument was operated at 25,000 accelerating volts in positive mode with a 150 ns delay. Ions with a mass-to-charge ratio (m/z) were detected in the range of 650-2000 atomic mass units. Data were analyzed by the Voyager Data Explorer module to obtain ion intensity data for mass species of substrates and corresponding products in a given mixture. Relative product formation was calculated as the ratio of signal intensity of the product to the sum of signal intensities of both product and the corresponding substrate. Relative product formed per unit time was obtained from non-linear regression analysis of the data representing the initial 15% formation of product using the model: 1−e^−kT, where k was the relative hydrolytic rate constant and T was time in seconds. Alternatively, relative hydrolytic rates were determined using a fluorogenic cleavage assay (Ermolieff, J. et al., Biochemistry, 39: 12450-12456 (2000)). Initial rates from either method were expressed relative to uninhibited controls and the inhibition constant Ki was determined by a non-linear fit to a tight-binding model of competitive inhibition (Bieth, J., Bayer-Symposium V: Proteinase Inhibitors, pp 463-469, Spinger-Varlag, Berlin (1994)). Results are shown in Table 1 above (M2K, CDK, and M1K columns represent, respectively, the K1 values obtained for memapsin 2, cathepsin D and memapsin 1).
# memapsin 2 = memapsin 2 (Homo sapiens, UniProt P56817); experiment: Inhibition of memapsin 2 catalytic activity (Ki); type: biochemical; details: memapsin 2, pH 4, 37° C.; read-out: M2K
# memapsin 2, sequence (P56817 46-501): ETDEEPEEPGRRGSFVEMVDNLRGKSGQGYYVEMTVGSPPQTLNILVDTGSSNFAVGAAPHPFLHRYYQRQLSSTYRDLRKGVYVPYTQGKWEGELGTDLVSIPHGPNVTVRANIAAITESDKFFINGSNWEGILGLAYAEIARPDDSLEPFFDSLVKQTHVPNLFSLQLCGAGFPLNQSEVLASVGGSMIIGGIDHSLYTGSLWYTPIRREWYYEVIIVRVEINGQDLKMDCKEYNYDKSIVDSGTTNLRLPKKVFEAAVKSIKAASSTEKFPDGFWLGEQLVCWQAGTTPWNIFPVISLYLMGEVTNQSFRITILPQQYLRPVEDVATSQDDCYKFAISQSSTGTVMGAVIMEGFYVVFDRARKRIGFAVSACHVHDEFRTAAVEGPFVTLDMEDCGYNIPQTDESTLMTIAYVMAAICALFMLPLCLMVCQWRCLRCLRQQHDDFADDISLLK
# Procedure, shortened: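 Run at 37 °C and pH 4: compound and enzyme pre-incubated 20 min before FS-2 fluorogenic substrate started hydrolysis,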
# [1] = tested on: Aβ production in Chinese hamster ovary cells that over-express human APP695 with the London and Swedish mutations; experiment: Cellular Aβ IC50 determination (Aβ40 sandwich ELISA); details: 24 h
# Procedure: The potency of compounds against memapsin 2 catalytic activity was determined in a cellular assay of Aβ production. […] Compounds are dissolved in DMSO to concentrations near 1 mM, and diluted into culture media to a final concentration near 4 μM (final 0.4% DMSO). Compounds were diluted serially and applied to cells in multi-well plates 48 h after seeding. Incubation was continued in 5% CO2 at 37 degrees C. for 24 h. Aliquots were removed and assayed for Aβ40 content using a sandwich ELISA (BioSource International). Amount of Aβ40 over the range of concentration of compounds, relative to control incubations, were fit to a 4-parameter IC50 model.
# [2] = Cricetulus griseus, CHO, read-out: Cell, Aβ40, CHO cells over-expressing human APP695 (London and Swedish mutations), 24 h
# cathepsin D, sequence (P07339 65-412, species assumed): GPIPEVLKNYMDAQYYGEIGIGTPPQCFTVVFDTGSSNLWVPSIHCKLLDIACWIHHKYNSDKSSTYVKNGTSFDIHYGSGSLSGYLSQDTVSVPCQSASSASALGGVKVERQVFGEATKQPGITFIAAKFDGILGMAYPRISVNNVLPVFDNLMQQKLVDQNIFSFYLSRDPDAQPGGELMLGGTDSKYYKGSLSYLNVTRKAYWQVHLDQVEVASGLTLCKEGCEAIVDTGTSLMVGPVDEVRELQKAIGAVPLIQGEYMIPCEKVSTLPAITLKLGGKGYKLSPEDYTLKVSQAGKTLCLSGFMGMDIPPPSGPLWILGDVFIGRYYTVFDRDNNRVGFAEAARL
Molecule,Ki (cathepsin D) [µM],Ki (memapsin 2) [µM],"IC50 [1, 2] [µM]","IC50 ([1]; read-out: Cell, Aβ40, CHO cells over-expressing human APP695 (London and Swedish mutations)) [µM]"
"COc1cccc(CNCC(O)C(Cc2ccccc2)NC(=O)c2cccc(C(=O)N(Cc3nc(C)cs3)N(C)C)c2)c1 (stereo not shown) [3-(2,2-dimethyl-1-((4-methylthiazol-2-yl)methyl)hydrazinecarbonyl)-N-(3-hydroxy-4-(3-methoxybenzylamino)-1-phenylbutan-2-yl)benzamide]",> 0.501,> 0.501,> 5,
CC(NC(=O)c1cc(C(=O)NC(Cc2ccccc2)C(O)CNCC2CCCN(C)C2)cc(N(C)S(C)(=O)=O)c1)c1ccccc1 (stereo not shown) [N1-(3-hydroxy-4-((1-methylpiperidin-3-yl)methylamino)-1-phenylbutan-2-yl)-5-(N-methylmethylsulfonamido)-N3-(1-phenylethyl)isophthalamide],> 0.501,> 0.501,> 5,
COc1cccc(CNCC(O)C(Cc2ccccc2)NC(=O)c2cccc(C(=O)N(C)Cc3nc(C)cs3)c2F)c1 (stereo not shown) [2-fluoro-N1-(3-hydroxy-4-(3-methoxybenzylamino)-1-phenylbutan-2-yl)-N3-methyl-N3-((4-methylthiazol-2-yl)methyl)isophthalamide],< 0.3,> 0.501,1 to 5,
N3-(3-hydroxy-4-(3-methoxybenzylamino)-1-phenylbutan-2-yl)-4- or 6-methyl-N1-(1-phenylethyl)isophthalamide,< 0.3,,,1 to 5
CNc1cccc(CNCC(O)C(Cc2ccccc2)NC(=O)c2cc(C(=O)NC(C)c3ccccc3)cc(N(C)S(C)(=O)=O)c2)c1 (stereo not shown) [N1-(3-hydroxy-4-(3-(methylamino)benzylamino)-1-phenylbutan-2-yl)-5-(N-methylmethylsulfonamido)-N3-(1-phenylethyl)isophthalamide],< 0.3,,,
4- or 6-fluoro-N3-(3-hydroxy-4-(3-methoxybenzylamino)-1-phenylbutan-2-yl)-N1-(1-phenylethyl)isophthalamide,< 0.3,> 0.501,,
"CC(NC(=O)c1cc(C(=O)NC(Cc2ccccc2)C(O)CNCc2ccc3c(c2)OCO3)cc(N(C)S(C)(=O)=O)c1)c1ccccc1 (stereo not shown) [N1-(4-(benzo[d][1,3]dioxol-5-ylmethylamino)-3-hydroxy-1-phenylbutan-2-yl)-5-(N-methylmethylsulfonamido)-N3-(1-phenylethyl)isophthalamide]",,< 0.3,< 1,
CCOc1cccc(CNCC(O)C(Cc2ccccc2)NC(=O)c2cc(C(=O)NC(C)c3ccccc3)cc(N(C)S(C)(=O)=O)c2)c1 (stereo not shown) [N1-(4-(3-ethoxybenzylamino)-3-hydroxy-1-phenylbutan-2-yl)-5-(N-methylmethylsulfonamido)-N3-(1-phenylethyl)isophthalamide],,< 0.3,< 1,
Cc1csc(CN(C)C(=O)c2cccc(C(=O)NC(Cc3ccccc3)C(O)CNCc3cccc(OC(F)(F)F)c3)c2)n1 (stereo not shown) [N1-(3-hydroxy-1-phenyl-4-(3-(trifluoromethoxy)benzylamino)butan-2-yl)-N3-methyl-N3-((4-methylthiazol-2-yl)methyl)isophthalamide],,< 0.3,< 1,
CC(NC(=O)c1cc(C(=O)NC(Cc2ccccc2)C(O)CNCC2CCCN2C)cc(N(C)S(C)(=O)=O)c1)c1ccccc1 (stereo not shown) [N1-(3-hydroxy-4-((1-methylpyrrolidin-2-yl)methylamino)-1-phenylbutan-2-yl)-5-(N-methylmethylsulfonamido)-N3-(1-phenylethyl)isophthalamide],,> 0.501,> 5,

# Other lines, results leading:
Ki (cathepsin D) [µM],Ki (memapsin 2) [µM],"IC50 [1, 2] [µM]","IC50 ([1]; read-out: Cell, Aβ40, CHO cells over-expressing human APP695 (London and Swedish mutations)) [µM]",Molecule
< 0.3,< 0.3,< 1,,CCc1cccc(CNCC(O)C(Cc2ccccc2)NC(=O)c2cccc(C(=O)N(C)Cc3nc(C)cs3)c2)c1 (stereo not shown) [N1-(4-(3-ethylbenzylamino)-3-hydroxy-1-phenylbutan-2-yl)-N3-methyl-N3-((4-methylthiazol-2-yl)methyl)isophthalamide]
< 0.3,< 0.3,< 1,,COc1ccc(CCNCC(O)C(Cc2ccccc2)NC(=O)c2cc(C(=O)NC(C)c3ccccc3)cc(N(C)S(C)(=O)=O)c2)cc1 (stereo not shown) [N1-(3-hydroxy-4-(4-methoxyphenethylamino)-1-phenylbutan-2-yl)-5-(N-methylmethylsulfonamido)-N3-(1-phenylethyl)isophthalamide]
< 0.3,< 0.3,< 1,,COc1cccc(C(C)NCC(O)C(Cc2ccccc2)NC(=O)c2cc(C(=O)NC(C)c3cccc(OC)c3)cc(N(C)S(C)(=O)=O)c2)c1 (stereo not shown) [N1-(3-hydroxy-4-(1-(3-methoxyphenyl)ethylamino)-1-phenylbutan-2-yl)-N3-(1-(3-methoxyphenyl)ethyl)-5-(N-methylmethylsulfonamido)isophthalamide]
> 0.501,< 0.3,< 1,,CC(NC(=O)c1cc(C(=O)NC(Cc2ccccc2)C(O)CNCc2cccc(N(C)C)c2)cc(N(C)S(C)(=O)=O)c1)c1ccccc1 (stereo not shown) [N1-(4-(3-(dimethylamino)benzylamino)-3-hydroxy-1-phenylbutan-2-yl)-5-(N-methylmethylsulfonamido)-N3-(1-phenylethyl)isophthalamide]
< 0.3,< 0.3,< 1,,COc1cccc(CNCC(O)C(Cc2ccccc2)NC(=O)c2cccc(C(=O)N(C)C(C)c3nc(C)cs3)c2)c1 (stereo not shown) [N1-(3-hydroxy-4-(3-methoxybenzylamino)-1-phenylbutan-2-yl)-N3-methyl-N3-(1-(4-methylthiazol-2-yl)ethyl)isophthalamide]
< 0.3,< 0.3,< 1,,CC(C)Cc1cccc(CNCC(O)C(Cc2ccccc2)NC(=O)c2cc(C(=O)NC(C)c3ccccc3)cc(N(C)S(C)(=O)=O)c2)c1 (stereo not shown) [N1-(3-hydroxy-4-(3-isobutylbenzylamino)-1-phenylbutan-2-yl)-5-(N-methylmethylsulfonamido)-N3-(1-phenylethyl)isophthalamide]
< 0.3,< 0.3,< 1,,Cc1cc(CNCC(O)C(Cc2ccccc2)NC(=O)c2cc(C(=O)NC(C)c3ccccc3)cc(N(C)S(C)(=O)=O)c2)on1 (stereo not shown) [N1-(3-hydroxy-4-((3-methylisoxazol-5-yl)methylamino)-1-phenylbutan-2-yl)-5-(N-methylmethylsulfonamido)-N3-(1-phenylethyl)isophthalamide]
< 0.3,< 0.3,,,COc1cccc(CCNCC(O)C(Cc2ccccc2)NC(=O)c2cc(C(=O)NC(C)c3ccccc3)cc(N(C)S(C)(=O)=O)c2)c1 (stereo not shown) [N1-(3-hydroxy-4-(3-methoxyphenethylamino)-1-phenylbutan-2-yl)-5-(N-methylmethylsulfonamido)-N3-(1-phenylethyl)isophthalamide]
< 0.3,< 0.3,,,Cc1ccc(CNCC(O)C(Cc2ccccc2)NC(=O)c2cc(C(=O)NC(C)c3ccccc3)cc(N(C)S(C)(=O)=O)c2)o1 (stereo not shown) [N1-(3-hydroxy-4-((5-methylfuran-2-yl)methylamino)-1-phenylbutan-2-yl)-5-(N-methylmethylsulfonamido)-N3-(1-phenylethyl)isophthalamide]
< 0.3,< 0.3,,,CC(NCC(O)C(Cc1ccccc1)NC(=O)c1cc(C(=O)NC(C)c2ccccc2)cc(N(C)S(C)(=O)=O)c1)c1cccc(F)c1 (stereo not shown) [N1-(4-(1-(3-fluorophenyl)ethylamino)-3-hydroxy-1-phenylbutan-2-yl)-5-(N-methylmethylsulfonamido)-N3-(1-phenylethyl)isophthalamide]
